These are literature values, as cited in US20070016968A1, “Treatment of pain through expression of opioid receptors” (priority 2003, published 2007).

SMILES strings stand for the structures.

One data set has as its system mice of the CXBX strain. The note with it: CXBX strain mice (Rossi et al 1996).
Data set [1] concerns MOR-1 knockout mice (exon-1). Particulars: disruption in exon-1 (Schuller et al 1999).
The test system of a further data set is mice. The note with it: antinociception tests on mice.
In a further data set the test system is μ1-site. The note with it: Ling et al 1984, 1985.
For another data set, the system named is μ-receptor. Particulars: in vivo studies (Ling et al).
Another data set addresses cloned DOR-1 receptor (Mus musculus, UniProt P32300). The note with it: mouse recombinant receptor.

cloned DOR-1 receptor, sequence (P32300 whole entry): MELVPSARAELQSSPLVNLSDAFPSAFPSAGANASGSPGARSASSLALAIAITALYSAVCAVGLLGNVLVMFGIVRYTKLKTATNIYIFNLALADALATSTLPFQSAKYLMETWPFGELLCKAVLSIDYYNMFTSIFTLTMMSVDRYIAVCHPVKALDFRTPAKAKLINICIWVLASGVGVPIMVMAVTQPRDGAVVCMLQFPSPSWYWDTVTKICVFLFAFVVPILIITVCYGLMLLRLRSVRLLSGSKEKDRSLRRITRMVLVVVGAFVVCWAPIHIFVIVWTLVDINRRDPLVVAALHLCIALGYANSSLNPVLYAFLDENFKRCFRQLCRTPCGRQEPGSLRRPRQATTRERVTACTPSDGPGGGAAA

As for `CC(=O)O[C@H]1C=C[C@H]2[C@H]3Cc4ccc(O)c5c4[C@@]2(CCN3C)[C@H]1O5` [6-acetyl morphine], the antinociceptive activity result with mice of the CXBX strain is on record as “potently antinociceptive”.
As for `CC(=O)Oc1ccc2c3c1O[C@H]1[C@@H](OC(C)=O)C=C[C@H]4[C@@H](C2)N(C)CC[C@@]341` [heroin], in the data set with mice of the CXBX strain, the antinociceptive activity result is recorded as “potently antinociceptive”. In addition, the antinociception result in data set [1] was “still produce antinociception”.
Take `CN1CC[C@]23c4c5ccc(O)c4O[C@H]2[C@@H](O[C@@H]2O[C@H](C(=O)O)[C@@H](O)[C@H](O)[C@H]2O)C=C[C@H]3[C@H]1C5` [morphine-6b-glucuronide]: the antinociceptive activity entry in the data set with mice of the CXBX strain is on record as “potently antinociceptive”.
Take `CN1CC[C@]23c4c5ccc(O)c4O[C@H]2[C@@H](O)C=C[C@H]3[C@H]1C5` [morphine]: the antinociceptive activity result in the data set on mice of the CXBX strain is reported as “poor antinociceptive agent”. Moreover, the “cross tolerance with morphine-6b-glucuronide, heroin or 6-acetyl morphine” value in the data set on mice is recorded as “does not exhibit cross tolerance”.
As for `C=CCN1CC[C@]23c4c5ccc(O)c4O[C@H]2/C(=N\N)CC[C@@]3(O)[C@H]1C5` [naloxazone], in the data set on μ1-site, the “effect on binding of radioligands to the μ1-site” value is on record as “abolish the binding of radioligands”. In the data set with μ-receptor, the “block of morphine-induced antinociception” value is on record as “selectively blocked”, the “block of morphine-induced respiratory depression” value is “did not block” and the “block of the induction of morphine dependence” value is “did not block”.
As to `C=CCN1CC[C@]23c4c5ccc(O)c4O[C@H]2/C(=N/N=C2\CC[C@@]4(O)[C@H]6Cc7ccc(O)c8c7[C@@]4(CCN6CC=C)[C@H]2O8)CC[C@@]3(O)[C@H]1C5` [naloxonazine], in the data set with μ1-site, the “effect on binding of radioligands to the μ1-site” value is reported as “abolish the binding of radioligands”.
Turning to `Oc1ccc2c3c1O[C@H]1c4oc5ccccc5c4C[C@@]4(O)[C@@H](C2)N(CC2CC2)CC[C@]314` [naltriben], at cloned DOR-1 receptor, the “displacement of [3H]-diprenorphine binding, compared with BNTX” value is “more highly displaced”.
